Values joined by “and” are separate entries in the source; they are usually repeats but may differ in a detail not shown here. Equal values may be shown once.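 Growth conditions: 96-well plates. Treatment: test compound, 48 hours, 5 concentrations. Analysis: linear interpolation between bracketing concentrations; unreached endpoints set to highest concentration. GI50 = concentration required for 50% inhibition of growth. TGI: concentration producing complete growth inhibition.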
How the values were obtained:
Experiment in all cases: growth of human tumour cells (NCI), 48 h
[1] = tested on: DLD-1 colon
[2] = tested on: DMS 114 small cell lung
[3] = tested on: KM20L2 colon
[4] = tested on: M19-MEL melanoma
[5] = tested on: SNB-78 CNS
[6] = tested on: XF 498 CNS
[7] = tested on: T-47D breast
[8] = tested on: MDA-N

COc1cc2cnc3c4ccccc4ccc3c2cc1OC
TGI [1]: > 100 µM
TGI [2]: > 100 µM
TGI [3]: > 100 µM
TGI [4]: > 100 µM
TGI [5]: > 100 µM
TGI [6]: > 100 µM

CC1(C)OC2COC3(CNO)OC(C)(C)OC3C2O1 (stereo not drawn)
TGI [1]: > 100 µM
TGI [2]: > 100 µM
TGI [4]: > 100 µM
TGI [5]: > 100 µM

COc1ccc(Nc2nc3ccccc3nc2-c2cccs2)cc1
TGI [1]: > 100 µM
TGI [2]: > 100 µM
TGI [3]: > 100 µM
TGI [5]: > 100 µM
TGI [6]: > 100 µM

COc1ccccc1/C=C/C(=O)/C=C/c1ccccc1O
GI50 [7]: 0.488 µM
TGI [7]: 4.52 µM

CCC1=C[C@@H]2CN(C1)Cc1c([nH]c3ccccc13)[C@@](C(=O)OC)(c1cc3c(cc1OC)N(C)[C@H]1[C@@](O)(C(=O)OC)[C@H](OC(C)=O)[C@]4(CC)[C@@H]5C[C@@H]5CN5CC[C@]31[C@@H]54)C2
TGI [7]: 11.5 µM and 23.9 µM

CCCCCCCCCCCC[n+]1ccccc1 (tested in a mixture with another compound)
GI50 [7]: 0.375 µM
TGI [7]: 3.94 µM

O=C(/C=C/c1ccccc1)CC(c1ccccc1)N1CCOCC1 (stereo not drawn)
GI50 [7]: 4.26 µM
TGI [7]: 23.5 µM

Cc1ncc(C(=O)Nc2ccc(CN3CCN(C)CC3)c(C(F)(F)F)c2)cc1C#Cc1cnc(NC2CC2)c2ncccc12
GI50 [7]: 5.68 µM
TGI [7]: 13.5 µM

CCSc1nc(N)c2cn[nH]c2n1
GI50 [7]: 17.6 µM
TGI [7]: 56.4 µM

CC(=O)[CH-]C(C)=O.[CH2-]C.[CH2-]C.[Tl+3]
GI50 [1]: > 100 µM
TGI [1]: > 100 µM
GI50 [2]: > 100 µM
TGI [2]: > 100 µM
GI50 [3]: > 100 µM
TGI [3]: > 100 µM
GI50 [6]: > 100 µM
TGI [6]: > 100 µM

NC(=O)C1(N2CCCCC2)CCN(CCCC(=O)c2ccc(F)cc2)CC1
GI50 [7]: > 100 µM
TGI [7]: > 100 µM

CCOC1Oc2ccccc2-c2oc(=O)c(Sc3ccc(C)cc3)cc21 (stereo not drawn)
GI50 [7]: 1.63 µM
TGI [7]: 56.4 µM

c1ccc2nc3c(cc4ccccn43)nc2c1
GI50 [7]: 88.1 µM
TGI [7]: > 100 µM

C=C(CN1CCc2ccccc2C1)c1ccc(C(=O)Nc2ccccc2N)cc1
GI50 [7]: > 15.8 µM
TGI [7]: > 39 µM

CC(=O)OC1COC(n2c(=S)n(-c3ccccc3)c(=O)c3cc(Br)ccc32)C(OC(C)=O)C1OC(C)=O (stereo not drawn)
TGI [2]: > 100 µM
TGI [3]: > 100 µM
TGI [4]: > 100 µM
TGI [5]: > 100 µM
TGI [6]: 45.2 µM

O=C(c1ccc2ccccc2c1)c1c(C(F)(F)F)n([O-])c2ccc(Cl)cc2[n+]1=O
GI50 [7]: 0.453 µM
TGI [7]: 1.78 µM

COc1cccc(/C=C2\CCC(C)(CN(C)C)C2=O)c1 (stereo not drawn)
TGI [1]: > 100 µM
TGI [2]: > 100 µM
TGI [3]: > 100 µM
TGI [4]: > 100 µM
TGI [5]: > 100 µM
TGI [6]: > 100 µM

O=C(NC12CC3CC(CC(C3)C1)C2)C(=O)c1c[nH]c2ccc(Cl)cc12
TGI [2]: > 100 µM
TGI [3]: > 100 µM
TGI [4]: > 100 µM
TGI [5]: > 100 µM
TGI [6]: 43 µM

OC(c1ccc(Br)cc1)(c1cccs1)C1CC1 (stereo not drawn)
TGI [8]: 41.8 µM
TGI [7]: 88.5 µM

COc1ccc(CC(C)C(C)Cc2ccc(OC)c(OC)c2)cc1OC (stereo not drawn)
GI50 [7]: > 1400 µM
TGI [7]: > 1400 µM

COCCOCCOCc1n(Cc2ccc3ccccc3n2)c2ccccc2[n+]1Cc1ccc2ccccc2c1
GI50 [7]: 0.293 µM
TGI [7]: 2.08 µM

NC(=O)/C=C/C(=O)O
TGI [1]: > 5000 µM
TGI [2]: > 5000 µM
TGI [4]: > 5000 µM
TGI [5]: > 5000 µM

O=C1C(SCCO)=C(SCCO)C(=O)c2ccccc21
TGI [8]: 0.314 µM
TGI [7]: > 27.5 µM

CNC(=O)c1cc2c(Oc3ccc(NC(=O)C4(C(=O)Nc5ccc(F)cc5)CC4)cc3)ccnc2cc1OC
GI50 [7]: 2.71 µM
TGI [7]: 16.3 µM

O=C1C=C(O)c2[nH]c(=O)ccc2C1=O
TGI [1]: > 100 µM
TGI [3]: > 100 µM
TGI [4]: > 100 µM
TGI [5]: > 100 µM
TGI [6]: > 100 µM

CC(=O)N[C@H](C(=O)N[C@@H](CCCNC(=N)N)C(=O)N[C@@H](CCCCN)C(=O)N[C@@H](CCCNC(=N)N)C(=O)N[C@]1(C)CCCCCC/C=C\CCC[C@@](C)(C(=O)N[C@@H](CCCNC(=N)N)C(=O)N[C@@H](CCC(=O)O)C(=O)N[C@@H](CC(C)C)C(=O)N[C@H](C(=O)N[C@@H](CCC(=O)O)C(N)=O)C(C)C)NC(=O)[C@H](CCC(N)=O)NC(=O)[C@H](CC(C)C)NC(=O)[C@H](CC(C)C)NC(=O)[C@H](CCCNC(=N)N)NC(=O)[C@H](CCCNC(=N)N)NC(=O)[C@H](CC(C)C)NC1=O)C(C)C
GI50 [7]: 1.03 µM
TGI [7]: 2.31 µM

CC1(C)N=C(N)N=C(N)N1c1ccc(OCC(=O)Nc2ccccc2)c(Cl)c1
GI50 [7]: > 65.8 µM
TGI [7]: > 100 µM

CCN(CC)CCNC(=O)c1cn2ncnc(Oc3ccc(NC(=O)Nc4ccc(Cl)c(C(F)(F)F)c4)c(F)c3)c2c1C
GI50 [7]: 1.83 µM
TGI [7]: 4 µM

Cn1c(/C(C#N)=C/c2ccc3ccccc3c2)cc2ccccc21
TGI [7]: > 100 µM

CN(C)Cc1c[nH]c2c(NCCN)c3c(c(NCCN)c12)C(=O)c1ccccc1C3=O
GI50 [7]: 1.82 µM
TGI [7]: 14 µM

— PubChem BioAssay (NCI)
